Results taken from publication PMC6152672, “Cholinesterase Inhibitory Activities of Adamantyl-Based Derivatives and Their Molecular Docking Studies” (Molecules : A Journal of Synthetic Chemistry and Natural …, 2017).
Like-named read-outs stand apart in the source and are kept apart here.

Tests used:
[1] = molecular target: T1, Electric eel acetylcholinesterase (AChE, EC 3.1.1.7) (Electrophorus electricus, UniProt O42275); assay: biochemical; type: biochemical; details: for AChE inhibition effect (in words): 2a, 2r: up to a concentration of 1000 µM
T1 construct: purchased Sigma-Aldrich (St. Louis, MO, USA)
From the text: (§1) Electric eel acetylcholinesterase (AChE, EC 3.1.1.7), equine serum butyrylcholinesterase (BChE, EC 3.1.1.8), 5,5’-dithio-bis-2-nitrobenzoic acid (DTNB), and sodium phosphate dibasic (Na2HPO4) were purchased from Sigma-Aldrich (St. Louis, MO, USA). S-butyrylthiocholine chloride (BTCC) from Sigma-Aldrich (Buchs, Switzerland), acetylthiocholine iodide (ATCI) from Sigma-Aldrich (Dorset, UK) and sodium phosphate monobasic (NaH2PO4) from Sigma-Aldrich (Munich, Germany) were purchased. […] The reagents and solvents for the synthesis work were obtained commercially from Sigma-Aldrich Corporation (St. Louis, MO, USA) and used without any further purification.
(§2) AChE and BChE inhibitory activities of the compounds were determined by Ellman’s assay with minor modifications. […] After a pre-incubation of 15 min at room temperature, 10 µL of 0.50 mM DTNB was added into each well, followed by 10 µL of 0.71 mM acetylthiocholine iodide as the substrate. […] Each test was carried out in triplicate and the results were expressed as an average value. The percentage of inhibition was calculated using the following formula: (1) Percentage of inhibition=S blank -S sample/S blank × 100% where S blank is slope of the blank reaction (without compounds or a reference standard) and S sample is the slope of the sample reaction (with compounds or a reference drug).
(§3) The results of the cholinesterase inhibitory assay were expressed as means ± SD, and were labeled if p < 0.05 using ANOVA of IBM SPSS Statistics for Windows, Version 23.0 (IBM, New York, NY, USA).

[2] = molecular target: T2, equine serum butyrylcholinesterase (BChE, EC 3.1.1.8) (Equus caballus, UniProt P81908); assay: biochemical; type: biochemical; details: for BChE inhibition effect (in words): 2a, 2r: up to a concentration of 1000 µM
T2 construct: purchased Sigma-Aldrich (St. Louis, MO, USA); host or cells: equine serum
From the text: as §1, §2, §3

[3] = Ellman's assay, pH 8, 15 min pre-incubation, acetylthiocholine iodide substrate, mean ± SD, triplicate, read-out: AChE IC50
[4] = Ellman's assay, pH 8, 15 min pre-incubation, butyrylthiocholine chloride substrate, mean ± SD, triplicate, read-out: BChE IC50

T2 sequence (P81908 whole entry): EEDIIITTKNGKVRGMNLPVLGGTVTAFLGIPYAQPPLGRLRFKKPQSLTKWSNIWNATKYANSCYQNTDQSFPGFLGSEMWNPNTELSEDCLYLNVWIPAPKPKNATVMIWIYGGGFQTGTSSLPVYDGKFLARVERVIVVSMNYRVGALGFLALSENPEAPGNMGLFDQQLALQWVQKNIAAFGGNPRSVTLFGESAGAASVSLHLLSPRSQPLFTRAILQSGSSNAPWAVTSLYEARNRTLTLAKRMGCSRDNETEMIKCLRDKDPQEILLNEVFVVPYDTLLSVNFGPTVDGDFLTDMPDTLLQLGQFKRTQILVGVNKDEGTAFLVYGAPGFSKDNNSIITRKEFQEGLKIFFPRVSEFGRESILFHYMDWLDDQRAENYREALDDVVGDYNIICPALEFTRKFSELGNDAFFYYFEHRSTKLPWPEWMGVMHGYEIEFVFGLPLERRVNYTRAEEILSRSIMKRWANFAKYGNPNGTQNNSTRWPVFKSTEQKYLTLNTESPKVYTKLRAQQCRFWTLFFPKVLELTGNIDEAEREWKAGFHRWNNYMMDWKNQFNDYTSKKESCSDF
T1 sequence (O42275 24-633): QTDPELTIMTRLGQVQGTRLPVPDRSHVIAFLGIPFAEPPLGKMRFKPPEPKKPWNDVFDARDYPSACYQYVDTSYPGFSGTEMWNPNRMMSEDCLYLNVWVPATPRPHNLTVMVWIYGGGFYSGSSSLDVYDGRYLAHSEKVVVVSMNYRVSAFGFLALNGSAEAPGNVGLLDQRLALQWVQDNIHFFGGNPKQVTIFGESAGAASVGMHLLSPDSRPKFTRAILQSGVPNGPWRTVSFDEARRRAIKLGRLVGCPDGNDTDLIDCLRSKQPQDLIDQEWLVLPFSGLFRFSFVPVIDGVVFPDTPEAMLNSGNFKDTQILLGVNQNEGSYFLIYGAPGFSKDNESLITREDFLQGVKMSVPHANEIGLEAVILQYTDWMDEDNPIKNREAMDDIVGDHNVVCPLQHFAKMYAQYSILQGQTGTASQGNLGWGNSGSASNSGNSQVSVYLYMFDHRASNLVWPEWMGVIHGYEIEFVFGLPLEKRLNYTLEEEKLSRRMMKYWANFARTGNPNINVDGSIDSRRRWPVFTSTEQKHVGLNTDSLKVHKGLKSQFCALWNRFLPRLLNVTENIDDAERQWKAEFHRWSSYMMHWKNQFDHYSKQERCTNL

| SMILES | IC50 [1, 3] [µM] | IC50 [2, 4] [mM] | AChE inhibition effect (in words) [1] | BChE inhibition effect (in words) [2] | IC50 [1] [µM] | IC50 [2] [mM] |
| --- | --- | --- | --- | --- | --- | --- |
| O=C(OCC(=O)C12CC3CC(CC(C3)C1)C2)c1cccc(Cl)c1 [Compound 2c, 2-(Adamantan-1-yl)-2-oxoethyl 3-chlorobenzoate] | 280 ± 17.4 | 0.971 ± 0.0625 | – | – | – | – |
| O=C(OCC(=O)C12CC3CC(CC(C3)C1)C2)c1ccccn1 [Compound 2r, 2-(Adamantan-1-yl)-2-oxoethyl picolinate] | > 1500 | > 1.5 | low inhibition effects | low inhibition effects | – | – |
| Cc1ccc(C(=O)OCC(=O)C23CC4CC(CC(C4)C2)C3)cc1 [Compound 2h, 2-(Adamantan-1-yl)-2-oxoethyl 4-methylbenzoate] | > 1500 | > 1.5 | – | – | – | – |
| Cc1cccc(C(=O)OCC(=O)C23CC4CC(CC(C4)C2)C3)c1 [Compound 2g, 2-(Adamantan-1-yl)-2-oxoethyl 3-methylbenzoate] | 191 ± 14.4 | > 1.5 | – | – | – | – |
| O=C(OCC(=O)C12CC3CC(CC(C3)C1)C2)c1ccccc1[N+](=O)[O-] [Compound 2l, 2-(Adamantan-1-yl)-2-oxoethyl 2-nitrobenzoate] | 689 ± 44.5 | > 1.5 | – | – | – | – |
| O=C(OCC(=O)C12CC3CC(CC(C3)C1)C2)c1ccc(Cl)cc1 [Compound 2d, 2-(Adamantan-1-yl)-2-oxoethyl 4-chlorobenzoate] | 341 ± 34.7 | 1.29 ± 0.0301 | – | – | – | – |
| Nc1cccc(C(=O)OCC(=O)C23CC4CC(CC(C4)C2)C3)c1 [Compound 2p, 2-(adamantan-1-yl)-2-oxoethyl 3-aminobenzoate] | > 1500 | > 1.5 | inactive | inactive | – | – |
| O=C(OCC(=O)C12CC3CC(CC(C3)C1)C2)c1ccccc1Cl [Compound 2b, 2-(Adamantan-1-yl)-2-oxoethyl 2-chlorobenzoate] | 361 ± 30 | > 1.5 | – | – | – | – |
| O=C(OCC(=O)C12CC3CC(CC(C3)C1)C2)c1ccc([N+](=O)[O-])cc1 [Compound 2n, 2-(Adamantan-1-yl)-2-oxoethyl 4-nitrobenzoate] | 349 ± 25.2 | 0.777 ± 0.0336 | – | – | – | – |
| COc1ccc(C(=O)OCC(=O)C23CC4CC(CC(C4)C2)C3)cc1 [Compound 2k, 2-(Adamantan-1-yl)-2-oxoethyl 4-methoxybenzoate] | > 1500 | > 1.5 | – | – | – | – |
| O=C(OCC(=O)C12CC3CC(CC(C3)C1)C2)c1ccccc1 [Compound 2a, 2-(Adamantan-1-yl)-2-oxoethyl benzoate] | 994 ± 19.4 | > 1.5 | low inhibition effects | low inhibition effects | – | – |
| O=C(OCC(=O)C12CC3CC(CC(C3)C1)C2)c1ccc(Cl)cc1Cl [Compound 2e, 2-(Adamantan-1-yl)-2-oxoethyl 2,4-dichlorobenzoate] | 77.1 ± 7.86 | 0.307 ± 0.0251 | – | – | – | – |
| Nc1ccc(C(=O)OCC(=O)C23CC4CC(CC(C4)C2)C3)cc1 [Compound 2q, 2-(adamantan-1-yl)-2-oxoethyl 4-aminobenzoate] | > 1500 | > 1.5 | inactive | inactive | – | – |
| COc1cccc(C(=O)OCC(=O)C23CC4CC(CC(C4)C2)C3)c1 [Compound 2j, 2-(Adamantan-1-yl)-2-oxoethyl 3-methoxybenzoate] | 166 ± 19.6 | 0.223 ± 0.0176 | – | – | – | – |
| O=C(OCC(=O)C12CC3CC(CC(C3)C1)C2)c1cccc([N+](=O)[O-])c1 [Compound 2m, 2-(Adamantan-1-yl)-2-oxoethyl 3-nitrobenzoate] | 233 ± 25.9 | > 1.5 | – | – | – | – |
| Nc1ccccc1C(=O)OCC(=O)C12CC3CC(CC(C3)C1)C2 [Compound 2o, 2-(adamantan-1-yl)-2-oxoethyl 2-aminobenzoate] | – | – | inactive | inactive | > 1500 | > 1.5 |
| Cc1ccccc1C(=O)OCC(=O)C12CC3CC(CC(C3)C1)C2 [Compound 2f, 2-(Adamantan-1-yl)-2-oxoethyl 2-methylbenzoate] | 175 ± 25.9 | > 1.5 | – | – | – | – |
| COc1ccccc1C(=O)OCC(=O)C12CC3CC(CC(C3)C1)C2 [Compound 2i, 2-(Adamantan-1-yl)-2-oxoethyl 2-methoxybenzoate] | > 1500 | > 1.5 | – | – | – | – |
